Tested on: primary umbilical cord-derived mesenchymal stem cells
Test: Stem cell stemness: colony formation (CFU-F, crystal violet) after pretreatment
Assay type: cell-based
Settings: 10 ng/mL interferon-γ pretreatment one week
Protocol: (§1) In a culture medium [high glucose DMEM (Gibco, Cat no. 11995-065); 10% fetal bovine serum (HyClone), 1% MEM non-essential amino acids solution (100×) (Gibco, Cat no. 11140-050)] containing 20 nM of exendin-4, primary umbilical cord-derived mesenchymal stem cells (ATCC No. PCS-500-010; Lot No. 63822428) were cultured for one week.
as §1, with “10” for “20”, “PMA,” for “exendin-4,”
as §1, with “10 ng/mL interferon-γ,” for “20 nM of exendin-4,”
as §1, with “10 μM” for “20 nM”, “tetrandrine,” for “exendin-4,”
as §1, with “10 μg/mL hyaluronic acid,” for “20 nM of exendin-4,”
as §1, with “30” for “20”, “substance P,” for “exendin-4,”
as §1, with “10” for “20”, “resveratrol,” for “exendin-4,”
as §1, with “10 μM” for “20 nM”, “lanifibranor,” for “exendin-4,”
Mesenchymal stem cells and the exendin-4-pretreated mesenchymal stem cells of the Example were each seeded at a density of 1,000 cells/dish into 100-mm cell culture dishes containing […] of a culture medium [high glucose DMEM (Gibco, Cat no. 11995-065), 10% fetal bovine serum (HyClone), 1% MEM non-essential amino acids solution (100×) (Gibco, Cat no. 11140-050)] per dish and cultured for 21 days. The cell-attached dishes were washed twice with PBS, followed by fixation with 95% methanol at room temperature for about 2 min. The fixed cells were washed three times with PBS and stained with 0.5% crystal violet [(sigma, C-3886, USA) […], methanol 100 ml] for 5 min. After water washing and drying at room temperature, colonies, each composed of 50 or more cells, were counted for comparison.
Mesenchymal stem cells and the PMA-pretreated mesenchymal stem cells of the Example were each seeded at a density of 1,000 cells/dish into 100-mm cell culture dishes containing […] of a culture medium [high glucose DMEM (Gibco, Cat no. 11995-065), 10% fetal bovine serum (HyClone), 1% MEM non-essential amino acids solution (100×) (Gibco, Cat no. 11140-050)] per dish and cultured for 21 days. The cell-attached dishes were washed twice with PBS, followed by fixation with 95% methanol at room temperature for about 2 min. […]

Question: Which results are given for “interferon-γ [IFNγ MSC-Exo = exosomes of IFNγ-treated mesenchymal stem cells]”?
Answer: colonies formed (each 50 or more cells) (1,000 cells/dish, 21 days, non-treated 28.6): 136 colonies; CFU-F increase (vs non-treated): about 476%

From patent US20220195384A1, “COMPOSITION FOR PROMOTING PRODUCTION OF STEM CELL-DERIVED EXOSOMES AND INCREASING STEMNESS” (BREXOGEN INC., priority 2019, published 2022)
